In ChEMBL document CHEMBL1201862, “PubChem BioAssay data set” (2004):
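Results reflect a 48-hour exposure of cells in 96-well plates to compound at five concentrations. Abbreviation: GI50, concentration required for 50% inhibition of growth.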 Calls of active or inactive are those of the source. Rule as the data show it: active = GI50 up to about 1.1 µM and inactive = higher.

Tests used:
Experiment in all cases: growth of human tumour cells (NCI), 48 h
786-0 = system: 786-0
A549 = system: A549
BT-549 = system: BT-549
CAKI-1 = system: CAKI-1
EKVX = system: EKVX
HOP-62 = system: HOP-62
KM12 = system: KM12
LOX IMVI = system: LOX IMVI
MCF7 = system: MCF7
MDA-N = system: MDA-N
NCI-H226 = system: NCI-H226
NCI/ADR-RES = system: NCI/ADR-RES
OVCAR-8 = system: OVCAR-8
SF-295 = system: SF-295
T47D = system: T47D
TK-10 = system: TK-10
UACC-257 = system: UACC-257
UO-31 = system: UO-31
HL-60 = system: HL-60

Measured: GI50

COc1ccc2c(c1)CCc1c-2n(CCN(C)C)c2ccc(OC)cc12
inactive: 786-0 27.2 µM | A549 15 µM | BT-549 29.1 µM | CAKI-1 22.1 µM | EKVX 31.2 µM | HOP-62 16.1 µM | KM12 7.53 µM | LOX IMVI 7.89 µM | MCF7 16.4 µM | MDA-N 5.46 µM | NCI-H226 3.03 µM | NCI/ADR-RES 18.5 µM | OVCAR-8 20.7 µM | SF-295 18.3 µM | T47D 15.5 µM | TK-10 24.2 µM | UACC-257 33 µM | UO-31 14 µM

CCOC(=O)/C=C/C1OC(C)(C)OC1/C=C/C(=O)OCC (configuration not stated)
inactive: 786-0 32.2 µM | A549 40.9 µM | BT-549 54.8 µM | CAKI-1 20.8 µM | EKVX 29.8 µM | HOP-62 23.7 µM | KM12 25.4 µM | LOX IMVI 27 µM | MCF7 30.8 µM | MDA-N 35.1 µM | NCI-H226 > 100 µM | NCI/ADR-RES 32.7 µM | OVCAR-8 25.5 µM | SF-295 48.6 µM | T47D 29.4 µM | TK-10 39.3 µM | UACC-257 48.4 µM | UO-31 > 100 µM

O=C(NCCCCCCNC(=O)c1cccc2ccccc12)Nc1cccc2ccccc12
inactive: 786-0 > 100 µM | A549 > 100 µM | BT-549 > 100 µM | CAKI-1 > 100 µM | EKVX > 100 µM | HL-60 > 100 µM | HOP-62 > 100 µM | KM12 > 100 µM | LOX IMVI > 100 µM | MCF7 > 100 µM | MDA-N > 100 µM | NCI/ADR-RES > 100 µM | OVCAR-8 > 100 µM | SF-295 > 100 µM | T47D > 100 µM | TK-10 > 100 µM | UACC-257 > 100 µM | UO-31 45.7 µM

O=C(O)c1ccccc1C(=O)OCC1CCCN2CCCCC12 (configuration not stated)
inactive: 786-0 > 100 µM | A549 > 100 µM | BT-549 > 100 µM | CAKI-1 > 100 µM | EKVX > 100 µM | HOP-62 > 100 µM | KM12 > 100 µM | LOX IMVI > 100 µM | MCF7 > 100 µM | MDA-N > 100 µM | NCI-H226 > 100 µM | NCI/ADR-RES > 100 µM | OVCAR-8 > 100 µM | SF-295 > 100 µM | T47D > 100 µM | TK-10 > 100 µM | UACC-257 > 100 µM | UO-31 > 100 µM
